“And” between values parts separate entries of the source, which are not always exact repeats. Equal entries are not always repeated. Where two headings read alike, the source gives them in different places.
Tests used:
Type in all cases: cell-based
[1] = target: kinases in BCWM.1 cells (Homo sapiens, UniProt O00329); details: PIK3CD; ATP; 1 μM, 90 min; GF
Experimental: (§1) The cells were harvested and lysed. […] Bound kinases were identified and quantitated by ACTIVX as described in Patricelli et al., Biochemistry, 2007, 46(2): 350-358. The compounds were tested in duplicates against duplicate or quadruplicate control samples.

[2] = target: kinases in BCWM.1 cells (Homo sapiens, UniProt O75385); details: ULK1; Lys2; 1 μM, 90 min; GF
Experimental: as §1

[3] = target: kinases in BCWM.1 cells (Homo sapiens, UniProt O95747); details: OSR1; Lys2; 1 μM, 90 min; GF
Experimental: as §1

[4] = target: kinases in BCWM.1 cells (Homo sapiens, UniProt O95819)
Experimental: as §1

[5] = target: kinases in BCWM.1 cells (Homo sapiens, UniProt P19525); details: PKR; Lys2; 1 μM, 90 min; GF
Experimental: as §1

[6] = target: kinases in BCWM.1 cells (Homo sapiens, UniProt P48426); details: PIP4K2A; ATP; 1 μM, 90 min; GF
Experimental: as §1

[7] = target: kinases in BCWM.1 cells (Homo sapiens, UniProt Q14289); details: PYK2; Activation Loop; 1 μM, 90 min; GF
Experimental: as §1

[8] = target: kinases in BCWM.1 cells (Homo sapiens, UniProt Q16512); details: PKN1; Lys1; 1 μM, 90 min; GF
Experimental: as §1

[9] = target: kinases in BCWM.1 cells (Homo sapiens, UniProt Q16816); details: PHKg1; Protein Kinase Domain; 1 μM, 90 min; GF
Experimental: as §1

[10] = target: kinases in BCWM.1 cells (Homo sapiens, UniProt Q58A45); details: PAN3; Protein Kinase Domain; 1 μM, 90 min; GF
Experimental: as §1

[11] = target: kinases in BCWM.1 cells (Homo sapiens, UniProt Q6PHR2); details: ULK3; Lys2; 1 μM, 90 min; GF
Experimental: as §1

[12] = target: kinases in BCWM.1 cells (Homo sapiens, UniProt Q86UE8); details: TLK2; Lys2; 1 μM, 90 min; GF
Experimental: as §1

[13] = target: kinases in BCWM.1 cells (Homo sapiens, UniProt Q86Y07); details: VRK2; Lys2; 1 μM, 90 min; GF
Experimental: as §1

[14] = target: kinases in BCWM.1 cells (Homo sapiens, UniProt Q8NEB9); details: PIK3C3; ATP; 1 μM, 90 min; GF
Experimental: as §1

[15] = target: kinases in BCWM.1 cells (Homo sapiens, UniProt Q8TBX8); details: PIP4K2C; ATP; 1 μM, 90 min; GF
Experimental: as §1

[16] = target: kinases in BCWM.1 cells (Homo sapiens, UniProt Q8TDX7); details: NEK7; Lys1; 1 μM, 90 min; GF
Experimental: as §1

[17] = target: kinases in BCWM.1 cells (Homo sapiens, UniProt Q96S38); details: RSKL1; ATP; 1 μM, 90 min; GF
Experimental: as §1

[18] = target: kinases in BCWM.1 cells (Homo sapiens, UniProt Q9BYT3); details: STK33; Lys2; 1 μM, 90 min; GF
Experimental: as §1

[19] = target: kinases in BCWM.1 cells (Homo sapiens, UniProt Q9NRH2); details: SNRK; Lys2; 1 μM, 90 min; GF
Experimental: as §1

[20] = target: kinases in BCWM.1 cells (Homo sapiens, UniProt Q9NYL2); details: ZAK; Lys1; 1 μM, 90 min; GF
Experimental: as §1

[21] = target: kinases in BCWM.1 cells (Homo sapiens, UniProt Q9UBE8); details: NLK; Lys2; 1 μM, 90 min; GF
Experimental: as §1

[22] = target: kinases in BCWM.1 cells (Homo sapiens, UniProt Q9UBS0); details: p70S6Kb; Lys2; 1 μM, 90 min; GF
Experimental: as §1

[23] = target: kinases in BCWM.1 cells (Homo sapiens, UniProt Q9UHD2); details: TBK1; Lys1; 1 μM, 90 min; GF
Experimental: as §1

[24] = target: kinases in BCWM.1 cells (Homo sapiens, UniProt Q9UKE5); details: ZC2/TNIK; Lys1; 1 μM, 90 min; GF
Experimental: as §1

[25] = target: kinases in BCWM.1 cells (Homo sapiens, UniProt Q9UL54); details: TAO2; Lys2; 1 μM, 90 min; GF
Experimental: as §1

[26] = system: kinases in BCWM.1 cells; details: 1 μM, GF
Experimental: as §1

Sequence of kinases in BCWM.1 cells (Homo sapiens, UniProt P19525) (P19525 2-551 limits assumed): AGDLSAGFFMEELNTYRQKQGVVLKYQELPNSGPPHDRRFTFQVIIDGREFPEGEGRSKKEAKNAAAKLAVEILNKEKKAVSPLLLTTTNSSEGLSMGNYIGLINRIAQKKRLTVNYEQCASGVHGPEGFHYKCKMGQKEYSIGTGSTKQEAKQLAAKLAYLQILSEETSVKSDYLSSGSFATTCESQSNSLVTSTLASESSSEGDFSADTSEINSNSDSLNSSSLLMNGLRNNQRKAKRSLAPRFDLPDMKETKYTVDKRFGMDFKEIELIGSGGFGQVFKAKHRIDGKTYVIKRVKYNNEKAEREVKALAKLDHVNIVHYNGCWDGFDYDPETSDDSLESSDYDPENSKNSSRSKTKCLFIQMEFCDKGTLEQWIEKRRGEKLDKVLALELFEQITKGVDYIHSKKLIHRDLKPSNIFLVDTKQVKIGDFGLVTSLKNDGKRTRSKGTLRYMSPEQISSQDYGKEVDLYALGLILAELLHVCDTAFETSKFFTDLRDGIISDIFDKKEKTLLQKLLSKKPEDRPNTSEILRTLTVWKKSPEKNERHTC
Sequence of kinases in BCWM.1 cells (Homo sapiens, UniProt Q8TBX8) (Q8TBX8 2-421 limits assumed): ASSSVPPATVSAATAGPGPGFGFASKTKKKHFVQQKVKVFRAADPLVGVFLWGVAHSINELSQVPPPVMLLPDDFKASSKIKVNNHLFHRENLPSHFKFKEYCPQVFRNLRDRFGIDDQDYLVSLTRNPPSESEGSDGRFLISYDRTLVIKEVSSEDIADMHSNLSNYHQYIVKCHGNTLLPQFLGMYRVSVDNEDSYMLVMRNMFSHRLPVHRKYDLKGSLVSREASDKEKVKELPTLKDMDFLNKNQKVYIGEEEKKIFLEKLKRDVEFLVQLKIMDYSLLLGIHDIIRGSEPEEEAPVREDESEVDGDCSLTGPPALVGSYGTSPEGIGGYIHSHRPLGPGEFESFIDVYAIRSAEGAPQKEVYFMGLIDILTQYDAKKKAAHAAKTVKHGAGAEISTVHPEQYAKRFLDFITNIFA
Sequence of kinases in BCWM.1 cells (Homo sapiens, UniProt Q16512) (Q16512 2-942 limits assumed): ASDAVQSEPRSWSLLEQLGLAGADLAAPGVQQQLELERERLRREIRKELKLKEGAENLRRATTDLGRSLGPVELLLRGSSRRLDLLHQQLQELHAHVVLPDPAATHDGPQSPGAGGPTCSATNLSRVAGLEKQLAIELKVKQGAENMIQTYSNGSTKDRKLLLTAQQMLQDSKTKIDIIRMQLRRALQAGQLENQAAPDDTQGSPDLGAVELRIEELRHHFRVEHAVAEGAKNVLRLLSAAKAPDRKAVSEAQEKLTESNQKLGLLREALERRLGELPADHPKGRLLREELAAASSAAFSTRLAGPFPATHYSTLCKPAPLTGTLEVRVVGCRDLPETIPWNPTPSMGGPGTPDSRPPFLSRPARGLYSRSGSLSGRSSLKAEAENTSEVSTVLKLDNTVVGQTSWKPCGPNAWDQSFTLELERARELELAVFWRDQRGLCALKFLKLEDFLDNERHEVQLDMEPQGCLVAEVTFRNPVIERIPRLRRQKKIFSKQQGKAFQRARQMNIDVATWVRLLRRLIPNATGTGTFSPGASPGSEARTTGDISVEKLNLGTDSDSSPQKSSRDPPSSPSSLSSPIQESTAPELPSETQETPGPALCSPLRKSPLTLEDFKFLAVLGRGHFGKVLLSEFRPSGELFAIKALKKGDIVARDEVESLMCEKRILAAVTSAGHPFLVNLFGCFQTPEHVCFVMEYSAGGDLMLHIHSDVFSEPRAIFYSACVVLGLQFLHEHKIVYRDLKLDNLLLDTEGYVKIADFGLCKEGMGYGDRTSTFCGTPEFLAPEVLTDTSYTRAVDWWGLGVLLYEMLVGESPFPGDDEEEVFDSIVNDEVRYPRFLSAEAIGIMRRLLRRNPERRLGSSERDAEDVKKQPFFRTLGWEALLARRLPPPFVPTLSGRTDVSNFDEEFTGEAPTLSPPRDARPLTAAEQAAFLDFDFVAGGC
Sequence of kinases in BCWM.1 cells (Homo sapiens, UniProt Q9NYL2) (Q9NYL2 2-800 limits assumed): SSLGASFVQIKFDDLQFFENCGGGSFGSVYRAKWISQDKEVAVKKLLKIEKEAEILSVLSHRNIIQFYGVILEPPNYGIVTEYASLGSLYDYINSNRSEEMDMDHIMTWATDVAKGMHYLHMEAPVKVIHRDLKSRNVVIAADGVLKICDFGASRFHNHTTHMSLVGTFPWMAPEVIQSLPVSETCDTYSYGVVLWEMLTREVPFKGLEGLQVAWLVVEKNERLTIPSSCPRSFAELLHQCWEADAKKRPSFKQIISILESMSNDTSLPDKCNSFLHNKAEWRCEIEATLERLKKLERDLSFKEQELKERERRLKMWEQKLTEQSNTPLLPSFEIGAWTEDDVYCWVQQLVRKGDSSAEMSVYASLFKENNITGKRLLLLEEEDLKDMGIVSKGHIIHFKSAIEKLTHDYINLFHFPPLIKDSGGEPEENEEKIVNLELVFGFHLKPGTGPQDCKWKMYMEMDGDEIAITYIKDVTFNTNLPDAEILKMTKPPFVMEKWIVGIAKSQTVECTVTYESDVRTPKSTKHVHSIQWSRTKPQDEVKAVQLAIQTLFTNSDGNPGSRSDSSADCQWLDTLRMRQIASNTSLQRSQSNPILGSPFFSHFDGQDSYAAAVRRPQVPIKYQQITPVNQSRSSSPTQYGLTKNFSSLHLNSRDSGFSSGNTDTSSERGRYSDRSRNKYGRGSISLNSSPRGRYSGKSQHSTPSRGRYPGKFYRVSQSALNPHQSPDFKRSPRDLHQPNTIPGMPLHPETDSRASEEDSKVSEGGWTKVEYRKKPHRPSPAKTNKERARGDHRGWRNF
Sequence of kinases in BCWM.1 cells (Homo sapiens, UniProt O95819) (O95819 2-1239 limits assumed): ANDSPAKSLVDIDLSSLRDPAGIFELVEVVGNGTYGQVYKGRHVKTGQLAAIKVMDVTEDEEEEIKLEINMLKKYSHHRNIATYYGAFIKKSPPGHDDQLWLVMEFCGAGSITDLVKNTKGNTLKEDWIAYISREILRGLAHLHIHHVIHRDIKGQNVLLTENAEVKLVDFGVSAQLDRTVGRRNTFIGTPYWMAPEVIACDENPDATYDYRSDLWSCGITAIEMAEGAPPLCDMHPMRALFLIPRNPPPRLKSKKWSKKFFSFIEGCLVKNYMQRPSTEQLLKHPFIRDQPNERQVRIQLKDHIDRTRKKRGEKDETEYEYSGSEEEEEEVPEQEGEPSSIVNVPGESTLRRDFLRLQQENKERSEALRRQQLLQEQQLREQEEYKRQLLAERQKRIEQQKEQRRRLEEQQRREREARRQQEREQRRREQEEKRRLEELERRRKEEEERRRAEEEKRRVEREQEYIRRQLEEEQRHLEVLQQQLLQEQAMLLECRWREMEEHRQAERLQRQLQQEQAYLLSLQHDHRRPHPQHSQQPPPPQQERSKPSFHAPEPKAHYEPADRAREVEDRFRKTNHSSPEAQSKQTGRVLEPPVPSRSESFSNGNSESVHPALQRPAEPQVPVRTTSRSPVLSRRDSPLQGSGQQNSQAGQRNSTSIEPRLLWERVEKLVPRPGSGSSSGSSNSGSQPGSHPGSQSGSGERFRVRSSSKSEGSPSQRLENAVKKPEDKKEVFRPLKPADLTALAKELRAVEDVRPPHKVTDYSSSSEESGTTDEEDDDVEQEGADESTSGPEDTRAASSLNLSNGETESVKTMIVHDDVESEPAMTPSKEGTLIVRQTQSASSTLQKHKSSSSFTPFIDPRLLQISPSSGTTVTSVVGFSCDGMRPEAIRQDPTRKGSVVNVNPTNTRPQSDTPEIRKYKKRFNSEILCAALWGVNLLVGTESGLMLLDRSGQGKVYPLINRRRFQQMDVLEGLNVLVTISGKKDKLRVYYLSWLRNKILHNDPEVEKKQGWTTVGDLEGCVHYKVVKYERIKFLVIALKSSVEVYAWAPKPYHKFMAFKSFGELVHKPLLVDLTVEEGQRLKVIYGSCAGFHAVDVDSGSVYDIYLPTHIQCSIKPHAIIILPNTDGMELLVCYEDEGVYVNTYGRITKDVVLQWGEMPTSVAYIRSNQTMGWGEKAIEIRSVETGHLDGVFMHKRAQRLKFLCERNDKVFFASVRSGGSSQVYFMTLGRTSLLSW
Sequence of kinases in BCWM.1 cells (Homo sapiens, UniProt P48426) (P48426 2-406 limits assumed): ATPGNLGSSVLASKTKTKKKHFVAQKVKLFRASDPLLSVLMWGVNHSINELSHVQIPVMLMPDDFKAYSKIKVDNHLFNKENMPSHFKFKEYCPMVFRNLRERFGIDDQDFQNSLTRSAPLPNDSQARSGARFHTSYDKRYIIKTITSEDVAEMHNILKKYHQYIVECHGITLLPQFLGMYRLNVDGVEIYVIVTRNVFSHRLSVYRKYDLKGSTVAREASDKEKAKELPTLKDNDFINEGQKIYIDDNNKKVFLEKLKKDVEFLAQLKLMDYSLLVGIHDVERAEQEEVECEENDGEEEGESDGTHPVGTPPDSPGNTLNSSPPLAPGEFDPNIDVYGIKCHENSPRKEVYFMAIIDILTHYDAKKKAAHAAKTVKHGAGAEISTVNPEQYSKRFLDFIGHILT
Sequence of kinases in BCWM.1 cells (Homo sapiens, UniProt O95747) (O95747 2-527 limits assumed): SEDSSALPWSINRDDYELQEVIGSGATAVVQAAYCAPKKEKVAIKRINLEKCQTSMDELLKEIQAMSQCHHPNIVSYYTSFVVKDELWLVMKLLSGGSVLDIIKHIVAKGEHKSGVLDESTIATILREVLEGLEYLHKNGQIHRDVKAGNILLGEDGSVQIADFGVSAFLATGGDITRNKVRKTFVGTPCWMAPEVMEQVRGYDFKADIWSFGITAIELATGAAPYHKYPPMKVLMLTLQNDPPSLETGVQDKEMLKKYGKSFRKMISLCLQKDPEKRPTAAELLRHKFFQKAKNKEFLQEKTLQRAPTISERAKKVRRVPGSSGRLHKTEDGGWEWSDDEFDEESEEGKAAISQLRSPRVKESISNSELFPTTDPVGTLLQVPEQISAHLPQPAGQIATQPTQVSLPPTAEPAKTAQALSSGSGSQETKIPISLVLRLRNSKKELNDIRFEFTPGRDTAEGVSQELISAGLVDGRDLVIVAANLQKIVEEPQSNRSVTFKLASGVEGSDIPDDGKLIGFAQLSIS

CCC(=O)N1CC[C@H](Nc2nccc(Nc3ncc(C(=O)Nc4c(C)cccc4C)s3)n2)C1 [Example I-9]
% change of MS signal compared to control sample [1]: −9.7% | % change of MS signal compared to control sample [2]: −1.7% | % change of MS signal compared to control sample [3]: 13.9% | % change of MS signal compared to control sample [4]: 15.3% | % change of MS signal compared to control sample [5]: −3.8% | % change of MS signal compared to control sample [6]: −8.3% | % change of MS signal compared to control sample [7]: −0.9% | % change of MS signal compared to control sample [8]: −0.9% | % change of MS signal compared to control sample [9]: −26.2% | % change of MS signal compared to control sample [10]: 4% | % change of MS signal compared to control sample [11]: −9.6% | % change of MS signal compared to control sample [12]: −1.9% | % change of MS signal compared to control sample [13]: −1.6% | % change of MS signal compared to control sample [14]: −9.4% | % change of MS signal compared to control sample [15]: −3.9% | % change of MS signal compared to control sample [16]: 8% | % change of MS signal compared to control sample [17]: 1.8% | % change of MS signal compared to control sample [18]: 16.1% | % change of MS signal compared to control sample [19]: 30.1% | % change of MS signal compared to control sample [20]: 12.1% | % change of MS signal compared to control sample [21]: 51.8% | % change of MS signal compared to control sample [22]: 3.1% | % change of MS signal compared to control sample [23]: 10.8% | % change of MS signal compared to control sample [24]: 11.4% | % change of MS signal compared to control sample [25]: 11.5% | % change of MS signal compared to control sample ([26]; ABL, ARG, Activation Loop): 46.1% and 75.4% | % change of MS signal compared to control sample ([26]; ABL, ARG, Lys1): 40.6% and 71.8% | % change of MS signal compared to control sample ([26]; AurA, AurB, AurC, ATP Loop): 5.5% and 2.8% | % change of MS signal compared to control sample ([26]; CK1g1, CK1g2, CK1g3, ATP Loop): −8.2% and −4.7% | % change of MS signal compared to control sample ([26]; FYN, SRC, YES, Activation Loop): 72.5% and 80.4% | % change of MS signal compared to control sample ([26]; JNK1, JNK2, JNK3, Lys2): −7% and 0.5% | % change of MS signal compared to control sample ([26]; KSR1, KSR2, Activation Loop): −14.6% and −16.2% | % change of MS signal compared to control sample ([26]; MAP2K1, MAP2K2, Lys1): −9.2% and −1.1% | % change of MS signal compared to control sample ([26]; MAP2K1, MAP2K2, Lys2): −6.4% and −4.5% | % change of MS signal compared to control sample ([26]; MAP3K2, MAP3K3, Lys2): 0.7% and 6.8% | % change of MS signal compared to control sample ([26]; MARK3, MARK4, Lys1): −10.4% and −7.1% | % change of MS signal compared to control sample ([26]; MER, TYRO3, Activation Loop): −14.7% | % change of MS signal compared to control sample ([26]; MST4, YSK1, Lys2, 90 min): 15.2% | % change of MS signal compared to control sample ([26]; NEK6, NEK7, Lys2, 90 min): −0.8% | % change of MS signal compared to control sample ([26]; PCTAIRE2, PCTAIRE3, Lys1, 90 min): −0.8% | % change of MS signal compared to control sample ([26]; PI4KA, PI4KAP2, ATP, 90 min): 3.6% | % change of MS signal compared to control sample ([26]; PKACa, PKCb, Lys2, 90 min): 25.3% | % change of MS signal compared to control sample ([26]; ROCK1, ROCK2, Lys2, 90 min): 1.7% | % change of MS signal compared to control sample ([26]; RSK1 domain1, RSK2 domain1, RSK3 domain1, Lys2, 90 min): −6.1% | % change of MS signal compared to control sample ([26]; SRPK1, SRPK2, Lys1, 90 min): 2.5% | % change of MS signal compared to control sample ([26]; TAO1, TAO3, Lys2, 90 min): 9.3% | % change of MS signal compared to control sample ([26]; Wnk1, Wnk2, Wnk3, Lys2, 90 min): 4.4% | % change of MS signal compared to control sample ([26]; Wnk1, Wnk2, ATP Loop, 90 min): 7.6% | % change of MS signal compared to control sample ([26]; ZC1/HGK, ZC2/TNIK, ZC3/MINK, Lys2, 90 min): 1.8% | % change of MS signal compared to control sample ([26]; p38d, p38g, Lys2, 90 min): −27.1%
